Test results as given in US7385054B2, “Trimeric, macrocyclically substituted halo-benzene derivatives” (Schering AG, priority 2004, dated 2008).

Legend:
[1] = Osmolality of the solution at 200 mg (I + Gd)/ml; type: physicochemical; settings: prior-art compounds as Na-salt
[2] = BuOH/H2O distribution coefficient; type: physicochemical; settings: butanol/water
Mouse = experiment: LD50 (Mouse), acute toxicity; type: in vivo

SMILES	Osmolality 200 mg (I + Gd)/ml [1]	BuOH/H2O Distribution Coefficient [2]	LD50 (Mouse) (Mouse)
CC(C(=O)NCC(=O)NCCNC(=O)c1c(I)c(C(=O)NCCNC(=O)CNC(=O)C(C)N2CCN(CC(=O)[O-])CCN(CC(=O)[O-])CCN(CC(=O)[O-])CC2)c(I)c(N(C)C(=O)C(C)N2CCN(CC(=O)[O-])CCN(CC(=O)[O-])CCN(CC(=O)[O-])CC2)c1I)N1CCN(CC(=O)[O-])CCN(CC(=O)[O-])CCN(CC(=O)[O-])CC1.[Gd+3].[Gd+3].[Gd+3] (mixture of isomers) [Example 8, 2,4,6-Triiodo-5-(2-{10-[1,4,7-tris-(carboxymethyl)-1,4,7,10-tetraazacyclododecanyl]}propionyl, Gd-complex)methylaminoisophthalic acid-N,N-bis-(3,6-diaza-4,7-dioxo-8-methyloctane-1,5-diyl-{10-[1,4,7-tris-(carboxymethyl)-1,4,7,10-tetraazacyclododecanyl, Gd-complex]})amide]	346 mosmol/l	0.00005	>12.0 g(I + Gd)/ g(I + Gd)/kg
CC(C(=O)NCCNC(=O)c1c(I)c(C(=O)NCCNC(=O)C(C)N2CCN(CC(=O)[O-])CCN(CC(=O)[O-])CCN(CC(=O)[O-])CC2)c(I)c(N(C)C(=O)C(C)N2CCN(CC(=O)[O-])CCN(CC(=O)[O-])CCN(CC(=O)[O-])CC2)c1I)N1CCN(CC(=O)[O-])CCN(CC(=O)[O-])CCN(CC(=O)[O-])CC1.[Gd+3].[Gd+3].[Gd+3] (stereo not drawn) [Example 1, 2,4,6-Triiodo-5-(2-{10-[1,4,7-tris-(carboxymethyl)-1,4,7,10-tetraazacyclododecanyl]}propionyl, Gd-complex)methylaminoisophthalic acid-N,N-bis-(3-aza-5-methyl-4-oxopentane-1,5-diyl-{10-[1,4,7-tris-(carboxymethyl)-1,4,7,10-tetraazacyclododecanyl,Gd-complex]})amide]	358 mosmol/l	0.00005	>12.0 g(I + Gd)/ g(I + Gd)/kg
CN(C(=O)CN1CCN(CC(=O)[O-])CCN(CC(=O)[O-])CCN(CC(=O)[O-])CC1)c1c(I)c(C(=O)NCCNC(=O)CN2CCN(CC(=O)[O-])CCN(CC(=O)[O-])CCN(CC(=O)[O-])CC2)c(I)c(C(=O)NCCNC(=O)CN2CCN(CC(=O)[O-])CCN(CC(=O)[O-])CCN(CC(=O)[O-])CC2)c1I.[Gd+3].[Gd+3].[Gd+3] [Example 5, 2,4,6-Triiodo-5-({10-[1,4,7-tris-(carboxymethyl)-1,4,7,10-tetraazacyclododecanyl]}acetyl, Gd-complex)methylaminoisophthalic acid-N,N-bis-(3-aza-4-oxopentane-1,5-diyl-{10-[1,4,7-tris-(carboxymethyl)-1,4,7,10-tetraazacyclododecanyl, Gd-complex]})amide]	371 mosmol/l	0.00006	>12.0 g(I + Gd)/ g(I + Gd)/kg
O=C([O-])CN1CCN(CC(=O)[O-])CCN(CC(=O)NCCNC(=O)c2c(I)c(NC(=O)CN3CCN(CC(=O)[O-])CCN(CC(=O)[O-])CCN(CC(=O)[O-])CC3)c(I)c(C(=O)NCCNC(=O)CN3CCN(CC(=O)[O-])CCN(CC(=O)[O-])CCN(CC(=O)[O-])CC3)c2I)CCN(CC(=O)[O-])CC1.[Gd+3].[Gd+3].[Gd+3] [Example 7, 2,4,6-Triiodo-5-({10-[1,4,7-tris-(carboxymethyl)-1,4,7,10-tetraazacyclododecanyl]}acetyl, Gd-complex)aminoisophthalic acid-N,N-bis-(3-aza-4-oxopentane-1,5-diyl-{10-[1,4,7-tris-(carboxymethyl)-1,4,7,10-tetraazacyclododecanyl, Gd-complex]})amide]	334 mosmol/l	0.00005	>12.0 g(I + Gd)/ g(I + Gd)/kg
